This experiment concerns Mycobacterium tuberculosis. In words: In vitro activity vs Mycobacterium tuberculosis, proportion method. As to conditions: ten(10) clinical isolates of Myco. tuberculosis (including several multiply-resistant strains), read-out: average MIC. The format is cell-based.

On to `CCC(CC)n1c(C)cc2c3c(N)nc(N)nc3ccc21` [Compound 2, 1,3-Diamino-7-(1-ethylpropyl)-8-methyl-7H-pyrrolo(3,2-f)quinazoline], for which the M I C was 3.2 µg/mL.
